# Tests used:
# [1] = Stability of TMZ in organic solvents by UV-Vis spectroscopy; assay type: physicochemical; settings: 0.01 mg/ml in 1:1 MeOH:DMSO
# Method: This observation prompted investigation of the stability of TMZ in organic solvents, a property not previously reported to our knowledge. Solutions of TMZ (0.01 milligram per milliliter concentration) in 1:1 MeOH:DMSO, DMSO, ACN, and 2,2,2-trifluoroethanol (TFE) were incubated at room temperature, as well as elevated temperatures (e.g., 50° C. and 70° C.). […] The marked difference in stability of TMZ observed between MeOH and TFE was attributed to the poor nucleophilicity of the latter, which precludes rapid imidazotetrazine solvolysis.
# U87MG cells = assay: CellTiter-Glo luminescent cell viability assay, cytotoxic effects on glioblastoma cell line; assay type: cell-based; settings: Homo sapiens, U-87 MG, 168 h; U87MG (TMZ sensitive) cells, Day 7, doses 0-10000 μM
# Method: Testing of the cytotoxic effects of polyMPC-TMZ on glioblastoma (GBM) cell lines utilized U87MG (TMZ sensitive cell line) and T98G (TMZ-resistant cell line). […] U87MG cells were plated on 96 well plates and cultured overnight in DMEM media containing 10% FBS at 37° C. in a CO2 incubator. The cells were treated with different doses of TMZ (0-10000 μM), polyMPC-TMZ-17% (random copolymer with 17 mole percent TMZ monomer) (0-10000 μM), polyMPC-TMZ-26% (random copolymer with 26% TMZ monomer) (0-10000 μM), polyMPC-TMZ-33% (random copolymer with 33% TMZ monomer) (0-10000 μM) or polyMPC-TMZ-50% random copolymer with 50 mole percent TMZ monomer) (0-10000 μM) and cell viability was tested on Day 7 using the CellTiter-Glo luminescent cell viability assay purchased from Promega, Inc. PolyMPC itself was used as a control polymer. […] All of the polyMPC-TMZ conjugates were efficacious, with a modified toxicity response as is typical of polymer prodrugs which mask the toxicity of the drug prior to making them available to the tumor. […] The higher IC50 values of polyMPC-TMZ will allow for introduction of larger drug doses in in vivo experiments.
smiles,measurement,setting,value
"Cn1nnc2c(C(N)=O)ncn2c1=O [TMZ, Temozolomide]","degradation in MeOH:DMSO mixture, heated","[1]; 50° C. or 70° C., after 1 hour",fully degraded
same,"degradation in MeOH:DMSO mixture, room temperature",[1]; room temperature,significant degradation
same,IC50,U87MG cells,~192 µM
